Structures can show the parent of a compound that is named as a salt. Where two headings read alike, the source gives them in different places.
How the values were obtained:
[1] = biological target: T1, α1b (hamster receptor expressed in mouse fibroblasts) (Mesocricetus auratus, UniProt P18841); assay: Radioligand binding with [3H]-prazosin, α1b
T1 construct: expressed in transfected cells; host or cells: mouse fibroblasts
T1 sequence (P18841 1-515): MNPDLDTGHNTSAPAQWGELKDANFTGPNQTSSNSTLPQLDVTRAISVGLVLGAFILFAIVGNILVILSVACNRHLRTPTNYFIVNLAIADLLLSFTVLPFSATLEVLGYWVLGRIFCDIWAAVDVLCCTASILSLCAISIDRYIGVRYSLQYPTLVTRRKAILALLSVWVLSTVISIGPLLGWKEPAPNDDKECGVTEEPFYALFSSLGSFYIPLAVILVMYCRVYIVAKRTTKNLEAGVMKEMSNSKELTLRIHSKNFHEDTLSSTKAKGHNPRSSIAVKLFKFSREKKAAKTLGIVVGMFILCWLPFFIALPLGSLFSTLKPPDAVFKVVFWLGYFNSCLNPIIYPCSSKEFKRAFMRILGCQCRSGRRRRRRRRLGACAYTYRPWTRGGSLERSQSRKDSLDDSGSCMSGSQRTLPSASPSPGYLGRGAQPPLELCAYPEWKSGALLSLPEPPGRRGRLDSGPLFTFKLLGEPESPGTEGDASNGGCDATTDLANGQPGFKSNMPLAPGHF
Summary of the method: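 Radioligand binding with [3H]-prazosin: α1A from rat submaxillary gland; α1b hamster receptor and α1d rat receptor, each expressed in mouse fibroblasts.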

[2] = system: Anesthetized Dogs; assay: Intraurethral pressure (IUP) in anesthetized dogs; format: in vivo, dog; details: Canis lupus familiaris; iv dose causing a maximum increase in IUP of 5 mm Hg, anesthetized female dogs; read-out: Mean IUP ED5
[3] = hamster receptor expressed in mouse fibroblasts, [3H]-prazosin, read-out: Radioligand Binding Ki α1b (Hamster)

Compound | ED (5 mmHg IUP increase) [2] | Ki [1] | further results
CCS(=O)(=O)Nc1cccc2c1CCCC2c1c[nH]cn1.O=C(O)/C=C\C(=O)O (centres unmarked) [Example 12, N-[5-(1H-imidazol-4-yl)-5,6,7,8-tetrahydro-1-naphthalenyl]ethanesulfonamide, maleate] | – | – | Ki [1, 3]: 6980 nM
CC(c1cccc(NS(C)(=O)=O)c1)c1c[nH]cn1.O=C(O)/C=C\C(=O)O (centres unmarked) [Example 31, N-[3-[1-(1H-imidazol-4-yl)ethyl]phenyl]methanesulfonamide, maleate] | 0.0916 µmol/kg | – | –
Cc1c(Cc2c[nH]cn2)cccc1NS(C)(=O)=O.O=C(O)/C=C\C(=O)O [Example 28, N-[3-(1H-imidazol-4-ylmethyl)-2-methylphenyl]methanesulfonamide, maleate] | 0.0771 µmol/kg | – | –
C=C(c1cccc(NS(=O)(=O)CC)c1)c1c[nH]cn1 [Example 45, N-{3-[1-(1H-imidazol-4-yl)vinyl]phenyly}ethanesulfonamide, maleate] | – | 1730 nM | –
CS(=O)(=O)Nc1cccc(Cc2c[nH]cn2)c1.O=C(O)/C=C\C(=O)O [Example 21, N-[3-(1H-imidazol-4-ylmethyl)phenyl]methanesulfonamide, maleate] | 0.0227 µmol/kg | 1270 nM | melting point: 142 to 144 °C
COc1ccc(NS(C)(=O)=O)c2c1C(c1c[nH]cn1)CCC2 (centres unmarked) [Example 26, N-[5,6,7,8-tetrahydro-(1H-imidazol-4-yl)-4-methoxyy-1-naphthalenyl]methanesulfonamide, maleate] | 0.653 µmol/kg | – | –
CCS(=O)(=O)Nc1cccc(Cc2c[nH]cn2)c1C.O=C(O)/C=C\C(=O)O [Example 29, N-[3-(1H-imidazol-4-ylmethyl)-2-methylphenyl]ethanesulfonamide, maleate] | 0.0411 µmol/kg | 3880 nM | –
CCS(=O)(=O)Nc1cccc2c1CCCC2c1c[nH]cn1.O=C(O)/C=C\C(=O)O (single isomer, unassigned; (+)) [Example 33, (+)-N-[5-(1H-imidazol-4-yl)-5,6,7,8-tetrahydro-1-naphthalenyl]ethanesulfonamide, maleate] | – | – | Ki [1, 3]: 1300 nM

— patent publication US6503935B1, “Imidazoles and related compounds as α1A agonists” (Abbott Laboratories, priority 1998, dated 2003)
